# Values quoted from earlier work in EP2374448A1, “Oral film formulation” (Labtec GmbH, priority 2010, dated 2011).
# Read-outs that look alike come from different tables or passages of the source.
# [1] = oral administration, overall range
Tmax after oral administration [1],further results,Molecule
,"Tmax after oral administration (in vivo, po): 1.5 - 4.5 (preferably 2.0 - 4.0) h",N-methyl-3-(1-methyl-4-piperidinyl)-1H-indole-5-ethanesulfonamide [Naratriptan]
1.0 - 3 (preferably 1.5 - 2.0) h,,"CN1CCC[C@@H]1Cc1c[nH]c2ccc(CCS(=O)(=O)c3ccccc3)cc12 [Eletriptan, (R)-3-[(I-Methyl-2-pyrrolidinyl)methyl]-5-[2-(phenylsulfonyl)ethyl]-1H-indole]"
0.5 - 4 (preferably 1.0 - 3.0) h,,"CN[C@@H]1CCc2[nH]c3ccc(C(N)=O)cc3c2C1 [Frovatriptan, (+)-(R)-3-methylamino-6-carboxamido-1,2,3,4-tetrahydrocarbazole]"
0.5 - 3 (preferably 1.0 - 2.5) h,,"CN(C)CCc1c[nH]c2ccc(Cn3cncn3)cc12 [Rizatriptan, N,N-dimethyl-5-(IH-1,2,4-triazol-l-ylmethyl)-1H-indole-3-ethanamine]"
1 to 4 h,"Tmax after oral administration (oral administration, during attack): 2.5 to 3 h; Tmax after oral administration (oral administration, migraine free period): 1 to 2 h","CN(C)CCc1c[nH]c2ccc(C[C@H]3COC(=O)N3)cc12 [zolmitriptan, (S)-(4)-[[3-[2-(dimethylamino)ethyl]-1H-indole-5yl]methyl]-2-oxazolidinone]"
,"Tmax after oral administration (in vivo, po): 0.25 - 1 (preferably 0.5) h",4-(5-Methoxy-4-pyrimidinyl)-1-[3-[5-[[(methylamino)-sulfonyl]methyl]-1H-indole-3-yl]propyl]piperazine [Avitriptan]
1.5 - 3 (preferably 2 - 2.5) h,,"CNS(=O)(=O)Cc1ccc2[nH]cc(CCN(C)C)c2c1 [Sumatriptan, 3-[2-(dimethylamino)ethyl]-N-methyl-1H-indole-5-methanesulfonamide]"
0.5 - 4 (preferably 1.0 - 3.0) h,,"CN(C)CCc1c[nH]c2ccc(CS(=O)(=O)N3CCCC3)cc12 [Almotriptan, I-[[[3-[2-(dimethylamino)ethyl]-1H-indole-5-yl]methyl]sulfonyl]pyrrolidine]"
